The NIST ThermoML archive (doi:10.1016/j.jct.2011.09.028)
± gives the expanded uncertainty stated by the source.

Columns and labels:
[1] = activity coefficient (dimensionless); of the first substance listed, at infinite dilution; xn = mol fraction of the nth substance listed; details: 101 kPa, Liquid, Chromatography, x1 = 0
[2] = 101.33 kPa, Liquid, Vibrating tube method

| SMILES | activity coefficient ([1]; 318.15 K) | activity coefficient ([1]; 323.15 K) | activity coefficient ([1]; 333.15 K) | activity coefficient ([1]; 343.15 K) | activity coefficient ([1]; 353.15 K) | mass density ([2]; 288.15 K) [kg/m3] | mass density ([2]; 293.15 K) [kg/m3] | mass density ([2]; 298.15 K) [kg/m3] | mass density ([2]; 303.15 K) [kg/m3] | mass density ([2]; 308.15 K) [kg/m3] | mass density ([2]; 313.15 K) [kg/m3] | mass density ([2]; 318.15 K) [kg/m3] |
| --- | --- | --- | --- | --- | --- | --- | --- | --- | --- | --- | --- | --- |
| COCCOC [1,2-dimethoxyethane] + CCn1cc[n+](C)c1.N#C[B-](C#N)(C#N)C#N | 0.452 ± 0.03 | 0.47 ± 0.03 | 0.505 ± 0.031 | 0.539 ± 0.031 | 0.574 ± 0.032 |  |  |  |  |  |  |  |
| Cc1cccc(C)c1 [1,3-dimethylbenzene] + CCn1cc[n+](C)c1.N#C[B-](C#N)(C#N)C#N | 2.62 ± 0.13 | 2.62 ± 0.13 | 2.63 ± 0.13 | 2.63 ± 0.13 | 2.64 ± 0.14 |  |  |  |  |  |  |  |
| FC(F)(F)C(Cl)Br (configuration not stated) [1-bromo-1-chloro-2,2,2-trifluoroethane] + CCn1cc[n+](C)c1.N#C[B-](C#N)(C#N)C#N | 1.16 ± 0.05 | 1.19 ± 0.05 | 1.28 ± 0.06 | 1.34 ± 0.06 | 1.41 ± 0.07 |  |  |  |  |  |  |  |
| CCn1cc[n+](C)c1.N#C[B-](C#N)(C#N)C#N [1-ethyl-3-methylimidazolium tetracyanoborate] |  |  |  |  |  | 1044.44 ± 0.26 | 1040.43 ± 0.26 | 1036.44 ± 0.26 | 1032.47 ± 0.26 | 1028.54 ± 0.25 | 1024.64 ± 0.25 | 1020.76 ± 0.25 |
| COC(C)(C)C [2-methoxy-2-methylpropane] + CCn1cc[n+](C)c1.N#C[B-](C#N)(C#N)C#N | 2.77 ± 0.14 | 2.8 ± 0.14 | 2.85 ± 0.15 | 2.9 ± 0.15 | 2.95 ± 0.15 |  |  |  |  |  |  |  |
| CC(C)=O [acetone] + CCn1cc[n+](C)c1.N#C[B-](C#N)(C#N)C#N | 0.437 ± 0.029 | 0.443 ± 0.03 | 0.454 ± 0.03 | 0.466 ± 0.03 | 0.479 ± 0.03 |  |  |  |  |  |  |  |
| CC#N [acetonitrile] + CCn1cc[n+](C)c1.N#C[B-](C#N)(C#N)C#N | 0.428 ± 0.029 | 0.43 ± 0.029 | 0.43 ± 0.029 | 0.431 ± 0.029 | 0.432 ± 0.029 |  |  |  |  |  |  |  |
| c1ccccc1 [benzene] + CCn1cc[n+](C)c1.N#C[B-](C#N)(C#N)C#N | 1.15 ± 0.05 | 1.15 ± 0.05 | 1.17 ± 0.05 | 1.18 ± 0.05 | 1.19 ± 0.05 |  |  |  |  |  |  |  |
| CCC(C)=O [butanone] + CCn1cc[n+](C)c1.N#C[B-](C#N)(C#N)C#N | 0.577 ± 0.032 | 0.584 ± 0.032 | 0.605 ± 0.033 | 0.611 ± 0.033 | 0.626 ± 0.033 |  |  |  |  |  |  |  |
| C1CCCCC1 [cyclohexane] + CCn1cc[n+](C)c1.N#C[B-](C#N)(C#N)C#N | 13.8 ± 0.7 | 13.4 ± 0.7 | 12.5 ± 0.6 | 11.8 ± 0.6 | 11.1 ± 0.6 |  |  |  |  |  |  |  |
| ClCCl [dichloromethane] + CCn1cc[n+](C)c1.N#C[B-](C#N)(C#N)C#N | 0.656 ± 0.034 | 0.665 ± 0.034 | 0.682 ± 0.034 | 0.698 ± 0.035 | 0.714 ± 0.035 |  |  |  |  |  |  |  |
| CC(C)OC(C)C [diisopropyl ether] + CCn1cc[n+](C)c1.N#C[B-](C#N)(C#N)C#N | 7.07 ± 0.36 | 7.08 ± 0.36 | 7.1 ± 0.37 | 7.11 ± 0.37 | 7.13 ± 0.37 |  |  |  |  |  |  |  |
| COC(=O)OC [dimethyl carbonate] + CCn1cc[n+](C)c1.N#C[B-](C#N)(C#N)C#N | 0.528 ± 0.031 | 0.535 ± 0.031 | 0.549 ± 0.031 | 0.563 ± 0.032 | 0.576 ± 0.032 |  |  |  |  |  |  |  |
| CCO [ethanol] + CCn1cc[n+](C)c1.N#C[B-](C#N)(C#N)C#N | 1.3 ± 0.06 | 1.25 ± 0.06 | 1.15 ± 0.05 | 1.07 ± 0.05 | 1 ± 0.04 |  |  |  |  |  |  |  |
| CCOC(C)=O [ethyl acetate] + CCn1cc[n+](C)c1.N#C[B-](C#N)(C#N)C#N | 0.989 ± 0.043 | 1 ± 0.04 | 1.02 ± 0.05 | 1.04 ± 0.05 | 1.06 ± 0.05 |  |  |  |  |  |  |  |
| CCc1ccccc1 [ethylbenzene] + CCn1cc[n+](C)c1.N#C[B-](C#N)(C#N)C#N | 2.62 ± 0.13 | 2.61 ± 0.13 | 2.61 ± 0.13 | 2.61 ± 0.13 | 2.61 ± 0.13 |  |  |  |  |  |  |  |

| SMILES | activity coefficient ([1]; 318.15 K) | activity coefficient ([1]; 323.15 K) | activity coefficient ([1]; 333.15 K) | activity coefficient ([1]; 343.15 K) | activity coefficient ([1]; 353.15 K) | mass density ([2]; 288.15 K) [kg/m3] | mass density ([2]; 293.15 K) [kg/m3] | mass density ([2]; 298.15 K) [kg/m3] | mass density ([2]; 303.15 K) [kg/m3] | mass density ([2]; 308.15 K) [kg/m3] | mass density ([2]; 313.15 K) [kg/m3] | mass density ([2]; 318.15 K) [kg/m3] |
| --- | --- | --- | --- | --- | --- | --- | --- | --- | --- | --- | --- | --- |
| CCC1CCCCC1 [ethylcyclohexane] + CCn1cc[n+](C)c1.N#C[B-](C#N)(C#N)C#N | 318 ± 17 | 323 ± 17 | 333 ± 17 | 343 ± 18 | 353 ± 18 |  |  |  |  |  |  |  |
| CCCCCCC [heptane] + CCn1cc[n+](C)c1.N#C[B-](C#N)(C#N)C#N | 42.4 ± 2.2 | 40.7 ± 2.1 | 37.5 ± 1.9 | 34.8 ± 1.8 | 32.3 ± 1.7 |  |  |  |  |  |  |  |
| CO [methanol] + CCn1cc[n+](C)c1.N#C[B-](C#N)(C#N)C#N | 0.917 ± 0.041 | 0.89 ± 0.04 | 0.84 ± 0.039 | 0.795 ± 0.038 | 0.755 ± 0.036 |  |  |  |  |  |  |  |
| COC(C)=O [methyl ethanoate] + CCn1cc[n+](C)c1.N#C[B-](C#N)(C#N)C#N | 0.653 ± 0.034 | 0.662 ± 0.034 | 0.682 ± 0.034 | 0.7 ± 0.035 | 0.723 ± 0.036 |  |  |  |  |  |  |  |
| CC1CCCCC1 [methylcyclohexane] + CCn1cc[n+](C)c1.N#C[B-](C#N)(C#N)C#N | 20.4 ± 1.1 | 19.7 ± 1 | 18.4 ± 1 | 17.2 ± 0.9 | 16.3 ± 0.8 |  |  |  |  |  |  |  |
| C[N+](=O)[O-] [nitromethane] + CCn1cc[n+](C)c1.N#C[B-](C#N)(C#N)C#N | 0.419 ± 0.029 | 0.421 ± 0.029 | 0.423 ± 0.029 | 0.426 ± 0.029 | 0.429 ± 0.029 |  |  |  |  |  |  |  |
| C=CCCCCCC [oct-1-ene] + CCn1cc[n+](C)c1.N#C[B-](C#N)(C#N)C#N | 28.8 ± 1.5 | 27.8 ± 1.4 | 26.1 ± 1.4 | 24.6 ± 1.3 | 23.3 ± 1.2 |  |  |  |  |  |  |  |
| CCCCCCCC [octane] + CCn1cc[n+](C)c1.N#C[B-](C#N)(C#N)C#N | 64.2 ± 3.3 | 61.2 ± 3.2 | 55.8 ± 2.9 | 51 ± 2.7 | 47 ± 2.4 |  |  |  |  |  |  |  |
| CCCO [propan-1-ol] + CCn1cc[n+](C)c1.N#C[B-](C#N)(C#N)C#N | 1.62 ± 0.08 | 1.55 ± 0.08 | 1.42 ± 0.07 | 1.31 ± 0.06 | 1.22 ± 0.06 |  |  |  |  |  |  |  |
| CC(C)O [propan-2-ol] + CCn1cc[n+](C)c1.N#C[B-](C#N)(C#N)C#N | 1.63 ± 0.08 | 1.56 ± 0.08 | 1.43 ± 0.07 | 1.32 ± 0.06 | 1.23 ± 0.06 |  |  |  |  |  |  |  |
| ClC(Cl)(Cl)Cl [tetrachloromethane] + CCn1cc[n+](C)c1.N#C[B-](C#N)(C#N)C#N | 3.56 ± 0.18 | 3.56 ± 0.18 | 3.55 ± 0.18 | 3.54 ± 0.18 | 3.53 ± 0.18 |  |  |  |  |  |  |  |
| C1CCOC1 [tetrahydrofuran] + CCn1cc[n+](C)c1.N#C[B-](C#N)(C#N)C#N | 0.699 ± 0.035 | 0.709 ± 0.035 | 0.727 ± 0.036 | 0.744 ± 0.036 | 0.761 ± 0.037 |  |  |  |  |  |  |  |
| c1ccsc1 [thiophene] + CCn1cc[n+](C)c1.N#C[B-](C#N)(C#N)C#N | 0.942 ± 0.042 | 0.947 ± 0.042 | 0.957 ± 0.042 | 0.967 ± 0.043 | 0.978 ± 0.043 |  |  |  |  |  |  |  |
| Cc1ccccc1 [toluene] + CCn1cc[n+](C)c1.N#C[B-](C#N)(C#N)C#N | 1.68 ± 0.08 | 1.69 ± 0.08 | 1.71 ± 0.09 | 1.72 ± 0.09 | 1.74 ± 0.09 |  |  |  |  |  |  |  |
| ClC(Cl)Cl [trichloromethane] + CCn1cc[n+](C)c1.N#C[B-](C#N)(C#N)C#N | 0.812 ± 0.038 | 0.829 ± 0.038 | 0.863 ± 0.039 | 0.895 ± 0.04 | 0.926 ± 0.041 |  |  |  |  |  |  |  |
